pEC50: −log10 of the molar value.

This note sets out measurements from ChEMBL document CHEMBL1146259, “Structure-activity relationships of the ultrapotent vanilloid resiniferatoxin (RTX): the homovanillyl moiety” (Bioorg Med Chem Lett, 2007).

Transient receptor potential cation channel subfamily V member 1, sequence (Q8NER1 whole entry): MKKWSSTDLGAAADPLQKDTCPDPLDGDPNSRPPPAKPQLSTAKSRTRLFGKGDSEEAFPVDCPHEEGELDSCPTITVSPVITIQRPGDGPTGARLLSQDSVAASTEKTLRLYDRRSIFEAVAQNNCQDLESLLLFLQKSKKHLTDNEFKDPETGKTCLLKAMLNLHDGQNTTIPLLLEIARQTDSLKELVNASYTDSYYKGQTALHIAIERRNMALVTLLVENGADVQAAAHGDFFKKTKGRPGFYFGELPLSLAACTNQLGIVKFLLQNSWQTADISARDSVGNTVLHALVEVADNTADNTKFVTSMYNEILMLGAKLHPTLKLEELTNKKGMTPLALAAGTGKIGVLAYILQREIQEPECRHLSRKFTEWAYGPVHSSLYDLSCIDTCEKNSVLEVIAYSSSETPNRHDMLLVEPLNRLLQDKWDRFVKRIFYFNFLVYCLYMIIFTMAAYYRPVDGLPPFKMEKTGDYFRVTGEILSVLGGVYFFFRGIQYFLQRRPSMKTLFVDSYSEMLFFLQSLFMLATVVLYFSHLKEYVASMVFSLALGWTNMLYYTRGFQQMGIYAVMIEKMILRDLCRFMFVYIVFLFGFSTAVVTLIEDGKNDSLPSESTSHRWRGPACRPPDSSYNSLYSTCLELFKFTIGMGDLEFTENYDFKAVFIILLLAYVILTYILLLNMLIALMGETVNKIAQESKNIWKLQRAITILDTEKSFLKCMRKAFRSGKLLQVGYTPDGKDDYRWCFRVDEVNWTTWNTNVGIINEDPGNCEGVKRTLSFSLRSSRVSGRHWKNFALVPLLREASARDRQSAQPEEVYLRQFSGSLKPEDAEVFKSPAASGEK

The assay concerns the target Transient receptor potential cation channel subfamily V member 1 (Homo sapiens, UniProt Q8NER1). In words: Agonist activity at human recombinant TRPV1 expressed in human HEK293 cells. Type of assay: functional, cell-based.
In the case of `C=C(C)[C@]12C[C@@H](C)[C@@]3(OCc4ccccc4)[C@@H](C=C(COC(=O)c4cc(I)c(O)c(OC)c4)C[C@]4(O)C(=O)C(C)=C[C@@H]34)[C@H]1OCO2`, the pEC50 – broadly, −log10 of the EC50, conventionally taken in molar units – is 8.72. The value for `C=C(C)[C@]12C[C@@H](C)[C@@]3(OCc4ccccc4)[C@@H](C=C(COC(=O)CCc4cc(OC)c(O)cc4I)C[C@]4(O)C(=O)C(C)=C[C@@H]34)[C@H]1OCO2` was 8.10; that for `C=C(C)[C@]12C[C@@H](C)[C@@]3(OCc4ccccc4)[C@@H](C=C(COC(=O)/C=C/c4ccc(O)c(OC)c4)C[C@]4(O)C(=O)C(C)=C[C@@H]34)[C@H]1OCO2` was 8.82. Consider `C=C(C)[C@]12C[C@@H](C)[C@@]3(OCc4ccccc4)[C@@H](C=C(COC(=O)c4ccccc4)C[C@]4(O)C(=O)C(C)=C[C@@H]34)[C@H]1OCO2`, for which the pEC50 is 7.59. As to `C=C(C)[C@]12C[C@@H](C)[C@@]3(OCc4ccccc4)[C@@H](C=C(COC(=O)Cc4ccccc4)C[C@]4(O)C(=O)C(C)=C[C@@H]34)[C@H]1OCO2`, the pEC50 is 8.33.

Take `C=C(C)[C@]12C[C@@H](C)[C@@]3(OCc4ccccc4)[C@@H](C=C(COC(=O)c4cc(OC)c(O)cc4I)C[C@]4(O)C(=O)C(C)=C[C@@H]34)[C@H]1OCO2`: the pEC50 is 7.82. In the case of `C=C(C)[C@]12C[C@@H](C)[C@@]3(OCc4ccccc4)[C@@H](C=C(COC(=O)CCc4cc(I)c(O)c(OC)c4)C[C@]4(O)C(=O)C(C)=C[C@@H]34)[C@H]1OCO2`, the pEC50 was 8.07. The result for `C=C(C)[C@]12C[C@@H](C)[C@@]34O[C@](Cc5ccccc5)(O[C@@H]1[C@@H]3C=C(COC(=O)Cc1ccc(O)c(OC)c1)C[C@]1(O)C(=O)C(C)=C[C@@H]41)O2` [RESINIFERATOXIN] reads 10.72. With `C=C(C)[C@]12C[C@@H](C)[C@@]3(OCc4ccccc4)[C@@H](C=C(COC(=O)c4ccc(O)c(OC)c4)C[C@]4(O)C(=O)C(C)=C[C@@H]34)[C@H]1OCO2`, the pEC50 is 8.03.

Consider `C=C(C)[C@]12C[C@@H](C)[C@@]3(OCc4ccccc4)[C@@H](C=C(COC(=O)/C=C/c4ccccc4)C[C@]4(O)C(=O)C(C)=C[C@@H]34)[C@H]1OCO2`, for which the pEC50 is 7.16.

For the compound `C=C(C)[C@]12C[C@@H](C)[C@@]3(OCc4ccccc4)[C@@H](C=C(COC(=O)CCc4ccc(O)c(OC)c4)C[C@]4(O)C(=O)C(C)=C[C@@H]34)[C@H]1OCO2`, the pEC50 was 8.34. For the compound `C=C(C)[C@]12C[C@@H](C)[C@@]3(OCc4ccccc4)[C@@H](C=C(COC(=O)CCc4ccccc4)C[C@]4(O)C(=O)C(C)=C[C@@H]34)[C@H]1OCO2`, the pEC50 is 7.29.
